We go through three molecules from patent US8987209B2, “N-carboxyalkyl-auristatin and the use thereof” (Seattle Genetics, Inc., priority 2010, dated 2015).

Molecules are shown by their SMILES. Square brackets hold non-standard residues; d marks the D form. Peptide text beside a SMILES is read from it. * marks the point of attachment. NMeVal(N-(CH2)3COOH) = CC(C)[C@@H](C(=O)*)N(C)CCCC(=O)O; Dolaproine = CO[C@@H]([C@@H]1CCCN1)[C@@H](C)C(=O)O; Dil = CC[C@H](C)[C@H](NC)[C@@H](CC(=O)O)OC; X5 = C[C@@H](N*)[C@@H](O)c1ccccc1; NMeV = CN[C@H](C(=O)O)C(C)C

The IC50 is the concentration at which inhibition is half-maximal. Low values mean higher potency, high ones lower potency. Broadly, the Papp B→A is the apparent permeability from the basolateral to the apical side of a cell layer.

Data set [1] concerns human renal carcinoma cell line 786-0. The experiment in a line: Anti-proliferative effect on renal cell carcinoma 786-0 cell line (MTT assay). The conditions noted are these: 786-0 cells, incubation 48 to 96 hours, serum free medium or 2% FCS. It is filed as cell-based. The procedure: B-1. Determination of Anti-proliferative Effects of Renal Cell Carcinoma 786-0 Cell Line:
A defined number of cells of the human renal carcinoma cell line 786-0 were cultured in a 96 well micro titer plate in rich medium (2500 or 7.000 cells/well) and then incubated over night at 37° C./5% CO2. After 18 hours the seed medium was replaced by a serum free medium or medium with 2% FCS. The treatment began with measuring out the respective test substances in varying concentrations (10^−5 M to 10^−14 M). Incubation times of between 48 hours and 96 hours were chosen. The proliferation was determined by means of the MTT assay (ATCC, Manassas, Va., USA, catalogue no. 30-1010K). After completion of incubation period the MTT reagent was incubated with the cells for 4 hours before lysis occurred over night by measuring out the detergent. The created stain was detected at 570 nm. The proliferation of the cells, which were treated identically to the other cells but without the test substance was defined as the 100% value. The data obtained from this test represent triple determinations and at least two experiments had been carried out independently of each other.

In another data set the test system is HT-29 wt cell line. As to the kind of experiment: Anti-proliferative effect on HT-29 wt cell line (MTT assay). Format: cell-based, human. The conditions noted are these: HT-29 wt cells, incubation 48 to 96 hours, medium with 10% FCS. The procedure: B-2. Determination of Anti-proliferative Effects of HT-29 wt Cell Line:
After 18 hours the seed medium was replaced by a fresh medium with 10% FCS. The treatment started with measuring out the respective test substance. The dose-response curves were determined of the investigative substances with a concentration of 10^−5 M to 10^−14 M (1:10 dilutions). Incubation times of between 48 hours and 96 hours were chosen. The proliferation was detected by means of the MTT assay (ATCC, Manassas, Va., USA, catalogue no. 30-1010K). After completion of selected incubation period the MTT reagent was incubated with the cells for 4 hours before lysis occurred over night by measuring out the detergent. The created stain was detected at 570 nm. The proliferation of the cells, which were treated identically to the other cells but without the test substance, was defined as the 100% value. The data obtained from this test represent triple determinations and at least two experiments had been carried out independently of each other.

Data set [2] is described as follows: Cell permeability, flux assay using Caco-2 cells. It is filed as in vitro ADME. The conditions noted are these: human, basal to apical, 2 hours incubation. The procedure:
(§1) B-5. Determination of Cell Permeability:
(§2) The cell permeability of a substance can be analyzed by means of in vitro tests in a flux assay using Caco-2-cells [M. D. Troutman and D. R. Thakker, Pharm. Res. 20 (8), 1210-1224 (2003)]. For this analysis the cells were cultured on 24 membrane filter plates for 15 to 16 days. In order to determine permeation the test substance in question was given either apical (A) to a HEPES buffer or basal (B) on the cells and incubated for 2 hours. The samples were withdrawn after 0 and 2 hours from the cis and trans compartments. The samples were separated by means of HPLC (Agilent 1200, Böblingen, Germany) using reverse-phase columns. The HPLC system was coupled to a triple quadropol mass spectrometer API 4000 (Applied Biosystems Applera, Darmstadt, Germany) via a turbo ion spray. The permeability was evaluated by means of the Papp value which was calculated with the help of the formula published by Schwab et al. [D. Schwab et al., J. Med. Chem. 46, 1716-1725 (2003)]. A substance was classified as active if the ratio of Papp (B-a) to Papp (A-B) was >2 or <0.5.
(§3) The permeability from B to A [Papp^(B-A)] is particularly important for toxophores which are being released intracellular: The lower the permeability the longer the residence time of the substance in the cell after intracellular release and, consequently, the more time available for interaction with the biochemical target (here: tubulin).
(In general: Passage across Caco-2 layers is used to estimate intestinal permeability.)

In the next data set the test system is Caco-2-cells. The experiment in a line: Cell permeability, flux assay using Caco-2 cells. It is filed as in vitro ADME. The conditions noted are these: basal to apical, 2 hours incubation. The procedure:
as §1, §2, §3

Take `CC[C@H](C)[C@@H]([C@@H](CC(=O)N1CCC[C@H]1[C@H](OC)[C@@H](C)C(=O)N[C@@H](Cc1c[nH]c2ccccc12)C(N)=O)OC)N(C)C(=O)[C@@H](NC(=O)[C@H](C(C)C)N(C)CCCC(=O)O)C(C)C` [Example 18, N-(3-carboxypropyl)-N-methyl-L-valyl-N-[(3R,4S,5S)-1-{(2S)-2-[(1R,2R)-3-{[(2S)-1-amino-3-(1H-indol-3-yl)-1-oxopropane2-yl]amino}-1-methoxy-2-methyl-3-oxopropyl]pyrrolidin-1-yl}-3-methoxy-5-methyl-1-oxoheptan-4-yl]-N-methyl-L-valinamide] ({NMeVal(N-(CH2)3COOH)}-V[Dil][Dolaproine]W-NH2): the IC50 came out at 173 nM in data set [1] (Homo sapiens) and 16 nM with HT-29 wt cell line (Homo sapiens). Moreover, the apparent permeability from basolateral to apical (Papp B→A) at 2 h in data set [2] worked out at 0.2 ×10⁻⁶ cm/s.
For the molecule `CC[C@H](C)[C@@H]([C@@H](CC(=O)N1CCC[C@H]1[C@H](OC)[C@@H](C)C(=O)N[C@H](C)[C@@H](O)c1ccccc1)OC)N(C)C(=O)[C@@H](NC(=O)[C@@H](NC)C(C)C)C(C)C` [MMAE, monomethylauristatin E, reference compound] (H-[NMeV]V[Dil][Dolaproine]-X5), the “Papp (B-A)” value in the data set with Caco-2-cells was determined as 8.9 ×10⁻⁶ cm/s.
Turning to `CC[C@H](C)[C@@H]([C@@H](CC(=O)N1CCC[C@H]1[C@H](OC)[C@@H](C)C(=O)N[C@@H](Cc1ccccc1)C(=O)O)OC)N(C)C(=O)[C@@H](NC(=O)[C@@H](NC)C(C)C)C(C)C` [MMAF, Monomethylauristatin F, reference compound] (H-[NMeV]V[Dil][Dolaproine]F-OH), the IC50 was 260 nM in data set [1] and 10 nM in the data set on HT-29 wt cell line. Also, the “Papp (B-A)” value in the data set on Caco-2-cells worked out at 7.3 ×10⁻⁶ cm/s.
